PMC11662004 (Communications Chemistry, 2024)
pIC50: −log10 of the molar value. Where “and” joins values, the source holds several entries; their conditions need not be identical. Equal entries are not always repeated. Where two headings read alike, the source gives them in different places. Positions of bridges follow the written chain, without caps; N, C: chain ends. Non-standard residues stand in square brackets, D forms with d. Residues, ends and D or L forms follow the SMILES beside them.

Experiments:
NgTet1 [1] = molecular target: T1, NgTet1 (Naegleria gruberi, UniProt D2W6T1); experiment: biochemical
T1 construct: His6-tagged full-length Naegleria gruberi NgTet1 (321 a. a.) protein with a thrombin cleavage site; made in house; host or cells: E. coli BL21(DE3)
T1 sequence (D2W6T1 1-321): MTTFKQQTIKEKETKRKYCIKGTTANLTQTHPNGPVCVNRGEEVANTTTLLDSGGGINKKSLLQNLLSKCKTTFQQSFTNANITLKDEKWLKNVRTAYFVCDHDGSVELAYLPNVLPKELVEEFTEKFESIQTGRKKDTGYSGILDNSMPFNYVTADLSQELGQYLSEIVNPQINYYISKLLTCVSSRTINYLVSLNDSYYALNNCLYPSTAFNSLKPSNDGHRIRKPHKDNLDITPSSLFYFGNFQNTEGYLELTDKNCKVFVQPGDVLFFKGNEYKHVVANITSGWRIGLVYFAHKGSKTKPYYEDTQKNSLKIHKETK
Procedure: (Fig. 5a), were screened for inhibitory activity against NgTet1.
(§1) Activity was normalised against reactions containing vehicle (DMSO). […] AS data shown as the mean of three experimental replicates (n = 3; mean ± SD); ^1H NMR data plotted from two independent replicates (n = 2); tabulated data reported as the mean of two and three independent replicates for ^1H NMR and AS, respectively (n = 2–3, SD reported for n = 3). N. d.: not determined; AS: AlphaScreen.
Compounds in DMSO (100 nL) were pre-dispensed in a logarithmically linear concentration gradient onto 384-well ProxiPlates using an Echo® 550 acoustic liquid handler (Labcyte). NgTet1 was pre-incubated with the inhibitor dilution series in DMSO at room temperature for 10 min. Reactions were initiated by the addition of appropriate cofactors and DNA. […] The reactions were quenched by the addition of 30 mM EDTA (pH 4.2), 358 mM NaCl (5 μL) within the enzyme linear activity window (determined in Fig. S10). Concurrently, a mixture containing the anti-^5hmC antibody (1:2000 dilution) and AlphaScreen beads (1:62.5 dilution) in assay buffer was prepared and incubated at room temperature for 30 min. The AlphaScreen bead/antibody mixture was added to the quenched NgTet1 reactions (5 μL), and the complete mixture was incubated at room temperature for 1 h. Chemiluminescence was measured on a PHERAstar FS/FSX (BMG Labtech) equipped with an AlphaScreen 680 570 module. All AlphaScreen bead manipulations were performed under subdued lighting. Inhibition data was normalised to reactions containing vehicle only (1% v/v DMSO) and fitted using “log(inhibitor) vs. response—Variable slope (four parameters)” non-linear regression model on GraphPad Prism 5.

NgTet1 [2] = molecular target: T1, NgTet1; experiment: biochemical; conditions: for normalised activity: NgTet1, NMR, 2 independent replicates
Procedure: as §1
All ^1H NMR spectra were recorded at 25 °C using D2O as a reference for internal deuterium lock on a Bruker Avance III 700 MHz equipped with an inverse TCI cryoprobe in 3 or 5 mm diameter tubes with a total sample volume of 160 or 565 μL, respectively. The water signal was reduced using Perfect Echo excitation sculpting suppression. Chemical shifts are reported in ppm relative to D2O (δH = 4.70 ppm).
NgTet1 was pre-incubated with inhibitor dilution series in DMSO-d6 at room temperature for 10 min (50 mM Tris-d11 [pH 7.5], 2% v/v DMSO-d6). Reactions were initiated by the addition of appropriate cofactors and DNA. […] The reactions were quenched by the addition of 9 mM NOG and 9 mM ZnCl2 in 90 mM Tris-d11 [pH 7.5] (20 μL) within the enzyme linear activity window (determined in Figure. S10). Samples were transferred to NMR tubes and subjected to ^1H NMR analysis. Data were processed as described above. Inhibition data was normalised to reactions containing vehicle only (1% v/v DMSO-d6) and fitted using “log(inhibitor) vs. response - Variable slope (four parameters)” non-linear regression model on GraphPad Prism 5.
Activity was normalised against reactions containing vehicle only (100% activity). Data is shown as the mean of 2 independent replicates (n = 2; […]
Fig. S10 Determination of linear NgTet1 enzymatic activity windows for inhibitor characterisation. a 1H NMR succinate detection time courses with no DNA, 5HC DNA (double- […]
complementary 5'-ACC AC5mC GGT GGT-3'). b AlphaScreen 5hmC detection time course using […]
courses shown. 1H NMR reaction conditions: 5 μM NgTet1, 2 mM sodium L-ascorbate, 100 μM […]
v/v D2O. DNA was added to a final concentration of 20 μM of double-stranded DNA. […]

Compound: CC[C@H](C)[C@@H]1NC(=O)[C@H](CC(C)C)NC(=O)[C@@H](Cc2ccc(O)cc2)NC(=O)CSC[C@@H](C(N)=O)NC(=O)[C@H](CO)NC(=O)[C@H](Cc2c[nH]cn2)NC(=O)[C@H](CCC(=O)O)NC(=O)[C@H](Cc2c[nH]c3ccccc23)NC(=O)[C@H](Cc2c[nH]c3ccccc23)NC(=O)[C@H]([C@@H](C)O)NC(=O)[C@H](Cc2ccc(O)cc2)NC(=O)[C@H](Cc2ccc(O)cc2)NC(=O)[C@H](C)NC(=O)[C@H](Cc2ccc(O)cc2)NC1=O [TiP1] ({CH2CO}-[dY]LIYAYYTWWEHSC-NH2; thioether N-14)
- pIC50 (NgTet1 [1]): 4.58
- normalised activity, % (NgTet1 [1]; AlphaScreen, -Log[inhibitor] (M) 8.73132): 115.665% and 99.133% and 91.2094% and 100% and 99.1774% and 99.7728% and 97.6796%
- uncoupled 2OG decarboxylase activity relative to control (NgTet1 [2]; 1.2 equivalents (6.17 μM) of ligand, no 5mC DNA substrate): 137%
- normalised activity, % (NgTet1 [2]; 5mC DNA, NMR, -Log[inhibitor] (M) 3.30103): 0.3831% and 0.8644%
- normalised activity, % (NgTet1 [2]; 5mC DNA, NMR, -Log[inhibitor] (M) 3.77815): 0%
- normalised activity, % (NgTet1 [2]; 5mC DNA, NMR, -Log[inhibitor] (M) 4.25527): 7.31% and 14.7287%
- normalised activity, % (NgTet1 [2]; 5mC DNA, NMR, -Log[inhibitor] (M) 4.73239): 78.5121% and 83.5696%
- normalised activity, % (NgTet1 [2]; 5mC DNA, NMR, -Log[inhibitor] (M) 5.20951): 98.5224% and 104.299%
- normalised activity, % (NgTet1 [2]; 5mC DNA, NMR, -Log[inhibitor] (M) 5.68664): 102.213% and 96.5096%
- normalised activity, % (NgTet1 [2]; 5mC DNA, NMR, -Log[inhibitor] (M) 6.16376): 101.348% and 99.8653%
- normalised activity, % (NgTet1 [2]; 5mC DNA, NMR, -Log[inhibitor] (M) 6.64088): 101.5% and 99.6319%
- normalised activity, % (NgTet1 [2]; 5mC DNA, NMR, -Log[inhibitor] (M) 7.118): 99.9781% and 101.169%
- normalised activity, % (NgTet1 [2]; 5mC DNA, NMR, -Log[inhibitor] (M) 7.59512): 101.989% and 101.514%
- normalised activity (NgTet1 [2]; -Log[inhibitor] (M) 3.30103): 1.539% and 0.6062%
- normalised activity (NgTet1 [2]; -Log[inhibitor] (M) 3.77815): 5.644% and 0.04671%
- normalised activity (NgTet1 [2]; -Log[inhibitor] (M) 4.25527): 23.0301% and 11.8368%
- normalised activity (NgTet1 [2]; -Log[inhibitor] (M) 4.73239): 129.261% and 95.1469%
- normalised activity (NgTet1 [2]; -Log[inhibitor] (M) 5.20951): 124.894% and 132.33%
- normalised activity (NgTet1 [2]; -Log[inhibitor] (M) 5.68664): 97.9138% and 111.807%
- normalised activity (NgTet1 [2]; -Log[inhibitor] (M) 6.16376): 101.603% and 106.324%
- normalised activity (NgTet1 [2]; -Log[inhibitor] (M) 6.64088): 102.045% and 105.397%
- normalised activity (NgTet1 [2]; -Log[inhibitor] (M) 7.118): 107.511% and 102.971%
- normalised activity (NgTet1 [2]; -Log[inhibitor] (M) 7.59512): 96.6941%
- pIC50 (NgTet1 [2]; IC50, 5mC DNA, NMR, 2OG decarboxylation with 20 µM 5mC DNA, 5 μM NgTet1, 50 μM 2OG): 4.54
- pIC50 (NgTet1 [2]; IC50, No DNA, NMR, uncoupled 2OG decarboxylation, no DNA, 5 μM NgTet1, 50 μM 2OG): 4.58
- pIC50 (NgTet1 [2]; IC50 across all assays, AS and 1H NMR assays): 4.54 to 4.59
- normalised activity, % (NgTet1 [2]; No DNA, NMR, -Log[inhibitor] (M) 3.30103): 1.539% and 0.6062%
- normalised activity, % (NgTet1 [2]; No DNA, NMR, -Log[inhibitor] (M) 3.77815): 5.644% and 0.04671%
- normalised activity, % (NgTet1 [2]; No DNA, NMR, -Log[inhibitor] (M) 4.25527): 23.0301% and 11.8368%
- normalised activity, % (NgTet1 [2]; No DNA, NMR, -Log[inhibitor] (M) 4.73239): 129.261% and 95.1469%
- normalised activity, % (NgTet1 [2]; No DNA, NMR, -Log[inhibitor] (M) 5.20951): 124.894% and 132.33%
- normalised activity, % (NgTet1 [2]; No DNA, NMR, -Log[inhibitor] (M) 5.68664): 97.9138% and 111.807%
- normalised activity, % (NgTet1 [2]; No DNA, NMR, -Log[inhibitor] (M) 6.16376): 101.603% and 106.324%
- normalised activity, % (NgTet1 [2]; No DNA, NMR, -Log[inhibitor] (M) 6.64088): 102.045% and 105.397%
- normalised activity, % (NgTet1 [2]; No DNA, NMR, -Log[inhibitor] (M) 7.118): 107.511% and 102.971%
- normalised activity, % (NgTet1 [2]; No DNA, NMR, -Log[inhibitor] (M) 7.59512): 96.6941%
- normalised activity, % (NgTet1 [2]; TiP1 statistical test, NMR, no DNA, NgTet1/TiP1 ratio 1:1.2, technical replicates): 140.602% and 133.857% and 142.6% and 131.935%
- normalised activity, % (NgTet1 [2]; TiP1 statistical test, NMR, no DNA, NgTet1/TiP1 ratio 1:3.7, technical replicates): 103.459% and 107.449% and 116.09% and 117.125%
